Results taken from US7125984B2, “Glucuronofucan sulfate” (Takara Bio Inc., priority 2000, dated 2006).

What was measured:
[1] = system: α-D-glucuronidase; assay: effect of calcium salt, protein and sodium chloride on the enzymatic reaction of α-D-glucuronidase; format: biochemical, Fucophilus fucoidanolyticus strain SI-1234; settings: for activation of α-D-glucuronidase (relative activity versus concentration in the reaction system): result in words
Excerpt: (§1) Then, the relationship between the relative activity of the α-D-glucuronidase or the endo-α-L-fucosidase of the present invention and the concentration of calcium chloride contained in the reaction system was examined.
(§2) Then, the relationship between the relative activity of the α-D-glucuronidase or the endo-α-L-fucosidase of the present invention and the concentration of bovine serum albumin contained in the reaction system was examined.
(§3) Then, the relationship between the relative activity of the α-D-glucuronidase or the endo-α-L-fucosidase of the present invention and the concentration of sodium chloride contained in the reaction system was examined.

[2] = system: endo-α-L-fucosidase; assay: effect of calcium salt, protein and sodium chloride on the enzymatic reaction of endo-α-L-fucosidase; format: biochemical, Fucophilus fucoidanolyticus strain SI-1234; settings: for activation of endo-α-L-fucosidase (relative activity versus concentration in the reaction system): result in words
Excerpt: as §1, §2, §3

[3] = oligosaccharide having a low molecular weight as substrate
[4] = sulfated glucuronofucan having a high molecular weight as substrate

Molecule	activation of α-D-glucuronidase (relative activity versus concentration in the reaction system) [1]	activation of endo-α-L-fucosidase (relative activity versus concentration in the reaction system) [2]	activation of α-D-glucuronidase [1, 3]	activation of α-D-glucuronidase [1, 4]	activation of endo-α-L-fucosidase [2, 3]	activation of endo-α-L-fucosidase [2, 4]
[Ca+2].[Cl-].[Cl-] [calcium chloride]	activated	activated	–	–	–	–
bovine serum albumin: protein added to the reaction system as enzyme activator	activated	activated	–	–	–	–
[Cl-].[Na+] [sodium chloride]	–	–	not activated	activates	not activated	activates
